Columns and labels:
Glutamate NMDA receptor = assay: Displacement of [3H]MK-801 from rat brain membrane N-methyl-D-aspartate glutamate receptor
[1] = Prevention of seizures induced by loud -high frequency sounds in the DBA/2 mouse after 20 mg/kg ip administration; format: functional; conditions: route intraperitoneal
[2] = biological target: Sodium channel protein type 2 subunit alpha (Rattus norvegicus, UniProt P04775); assay: Sodium channel block, determined by % block of [14C]guanidinium flux in CHO line expressing rat type IIA sodium channels derived from rat brain
Sequence of Sodium channel protein type 2 subunit alpha (P04775 whole entry): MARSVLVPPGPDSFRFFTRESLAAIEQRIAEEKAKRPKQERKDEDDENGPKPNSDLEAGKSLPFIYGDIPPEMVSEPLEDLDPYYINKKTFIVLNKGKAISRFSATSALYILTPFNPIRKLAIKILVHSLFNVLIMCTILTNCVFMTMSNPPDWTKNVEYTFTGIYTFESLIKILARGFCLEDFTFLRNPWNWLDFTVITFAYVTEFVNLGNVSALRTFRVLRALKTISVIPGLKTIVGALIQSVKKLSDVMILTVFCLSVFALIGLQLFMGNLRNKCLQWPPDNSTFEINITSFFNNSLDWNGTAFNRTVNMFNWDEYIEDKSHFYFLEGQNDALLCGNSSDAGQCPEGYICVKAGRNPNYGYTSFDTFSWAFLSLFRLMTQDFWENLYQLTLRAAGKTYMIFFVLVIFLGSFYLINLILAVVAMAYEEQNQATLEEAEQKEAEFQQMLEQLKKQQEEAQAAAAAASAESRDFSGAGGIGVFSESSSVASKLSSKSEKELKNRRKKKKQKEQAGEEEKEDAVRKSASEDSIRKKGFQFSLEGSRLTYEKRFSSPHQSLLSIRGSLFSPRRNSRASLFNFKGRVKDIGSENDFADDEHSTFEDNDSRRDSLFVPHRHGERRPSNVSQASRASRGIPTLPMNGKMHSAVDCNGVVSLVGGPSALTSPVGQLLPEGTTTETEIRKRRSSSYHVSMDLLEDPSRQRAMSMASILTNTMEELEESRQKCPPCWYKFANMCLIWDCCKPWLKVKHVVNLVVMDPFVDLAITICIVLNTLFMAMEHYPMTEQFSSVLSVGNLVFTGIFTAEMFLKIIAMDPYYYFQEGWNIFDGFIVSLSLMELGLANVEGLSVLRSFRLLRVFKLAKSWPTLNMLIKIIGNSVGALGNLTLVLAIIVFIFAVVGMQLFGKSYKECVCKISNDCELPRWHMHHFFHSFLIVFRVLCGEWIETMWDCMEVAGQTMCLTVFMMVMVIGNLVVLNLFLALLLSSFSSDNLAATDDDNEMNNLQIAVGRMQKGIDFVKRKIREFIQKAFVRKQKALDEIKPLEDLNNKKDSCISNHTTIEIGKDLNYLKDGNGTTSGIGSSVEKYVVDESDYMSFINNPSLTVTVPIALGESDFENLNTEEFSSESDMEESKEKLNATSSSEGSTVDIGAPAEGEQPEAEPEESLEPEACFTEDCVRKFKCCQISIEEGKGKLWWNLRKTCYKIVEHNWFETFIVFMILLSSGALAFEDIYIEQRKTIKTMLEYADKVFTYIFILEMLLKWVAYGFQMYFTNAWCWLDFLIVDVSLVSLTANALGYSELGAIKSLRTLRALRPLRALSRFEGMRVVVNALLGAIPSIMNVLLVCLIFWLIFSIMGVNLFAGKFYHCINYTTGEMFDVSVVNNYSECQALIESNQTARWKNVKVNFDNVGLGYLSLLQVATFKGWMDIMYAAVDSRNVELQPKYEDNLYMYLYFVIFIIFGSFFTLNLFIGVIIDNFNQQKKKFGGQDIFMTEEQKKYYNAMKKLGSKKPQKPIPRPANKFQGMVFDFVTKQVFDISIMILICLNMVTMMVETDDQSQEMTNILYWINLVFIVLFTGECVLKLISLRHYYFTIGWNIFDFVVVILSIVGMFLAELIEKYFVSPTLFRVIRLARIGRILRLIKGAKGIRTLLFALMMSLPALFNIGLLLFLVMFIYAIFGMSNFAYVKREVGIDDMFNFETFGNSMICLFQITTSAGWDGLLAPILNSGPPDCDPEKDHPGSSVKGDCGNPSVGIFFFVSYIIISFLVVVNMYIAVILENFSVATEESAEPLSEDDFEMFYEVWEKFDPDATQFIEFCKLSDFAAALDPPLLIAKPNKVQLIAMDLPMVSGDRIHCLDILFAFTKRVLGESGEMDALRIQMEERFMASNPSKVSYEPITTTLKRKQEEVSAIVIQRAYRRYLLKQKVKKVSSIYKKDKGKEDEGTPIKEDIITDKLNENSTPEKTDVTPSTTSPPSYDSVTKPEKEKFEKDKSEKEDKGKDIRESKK

physchem = conditions: octanol/15 mM HEPES/135 mM NaCl, pH 7.4
Description: Partition coefficient (logD7.4) (octanol/15 mM HEPES/135 mM NaCl at pH 7.4)

Mus musculus = assay: The in vivo inhibitory activity of compound was measured as effectiveness in preventing seizures induced by loud -high frequency sounds in the DBA/2 mouse after 25 mg/kg ip administration.; format: functional; conditions: route intraperitoneal

CCc1ccc(NC(=N)Nc2ccc(CC)cc2)cc1
IC50 (Glutamate NMDA receptor): 7910 nM
inhibition in vivo at 20 mg/kg [1]: 100%
IC50 [2]: 1390 nM
logD (physchem): 1.7

CCCCc1ccc(NC(N)=Nc2ccc(OCc3ccccc3)cc2)cc1
IC50 (Glutamate NMDA receptor): 4010 nM
inhibition in vivo at 20 mg/kg [1]: 40%
IC50 [2]: 140 nM

CN1CCN(c2ncc(-c3cc(Cl)cc(Cl)c3Cl)c(N)n2)CC1 [SIPATRIGINE]
inhibition in vivo at 20 mg/kg [1]: 66%
logD (physchem): 3.39

COc1ccc(/N=C(\N)Nc2ccc3c4c(cccc24)CC3)c2ccccc12
IC50 (Glutamate NMDA receptor): 2490 nM
inhibition in vivo at 20 mg/kg [1]: 50%
logD (physchem): 2.7

CCCCOc1ccc(N=C(N)Nc2ccc(OCCCC)cc2)cc1
IC50 (Glutamate NMDA receptor): 3480 nM
inhibition in vivo at 20 mg/kg [1]: 52%
IC50 [2]: 190 nM
logD (physchem): 3.52

CCCCCCc1ccc(N=C(N)Nc2ccc(CCCCCC)cc2)cc1
IC50 (Glutamate NMDA receptor): 7790 nM
inhibition in vivo at 20 mg/kg [1]: 79%
IC50 [2]: 830 nM
logD (physchem): 6.07

Nc1nc2ccc(OC(F)(F)F)cc2s1 [RILUZOLE]
inhibition in vivo at 20 mg/kg [1]: 92%

CCCCOc1ccc(NC(=N)Nc2ccc(CCCCO)cc2)cc1
inhibition in vivo at 20 mg/kg [1]: 11%
IC50 [2]: 1780 nM
logD (physchem): 1.72

CCCCc1ccc(N=C(N)Nc2ccc(CCCC)cc2)cc1
IC50 (Glutamate NMDA receptor): 3320 nM
IC50 [2]: 130 nM
logD (physchem): 4.1
inhibition in vivo at 25 mg/kg (Mus musculus): 82%

NC(=Nc1ccc(CCCCO)cc1)Nc1ccc(CCCCO)cc1
inhibition in vivo at 20 mg/kg [1]: 0%
IC50 [2]: 8190 nM
logD (physchem): 0.047

NC(=Nc1ccc(-c2ccccc2)cc1)Nc1ccc(-c2ccccc2)cc1
IC50 [2]: 850 nM
logD (physchem): 3.13

NC(=Nc1ccc(Sc2ccccc2)cc1)Nc1ccc(Sc2ccccc2)cc1
IC50 [2]: 840 nM
logD (physchem): 4.18

CC(C)(C)c1ccc(NC(=N)Nc2ccc(OCc3ccccc3)cc2)cc1
IC50 (Glutamate NMDA receptor): 2190 nM
inhibition in vivo at 20 mg/kg [1]: 27%
IC50 [2]: 110 nM
logD (physchem): 3.46

CCC(C)c1ccc(NC(=N)Nc2ccc(C(C)CC)cc2)cc1 (stereo not given)
IC50 (Glutamate NMDA receptor): 10100 nM
inhibition in vivo at 20 mg/kg [1]: 69%
logD (physchem): 3.94

CC(C)c1ccc(NC(=N)Nc2ccc(C(C)C)cc2)cc1
IC50 (Glutamate NMDA receptor): 17900 nM
inhibition in vivo at 20 mg/kg [1]: 85%
IC50 [2]: 460 nM
logD (physchem): 2.72

Cc1ccc(N=C(N)Nc2ccc(C)cc2)cc1
IC50 (Glutamate NMDA receptor): 10200 nM
inhibition in vivo at 20 mg/kg [1]: 43%
IC50 [2]: 9210 nM
logD (physchem): 0.7

NC(=Nc1ccc(Oc2ccccc2)cc1)Nc1ccc(Oc2ccccc2)cc1
inhibition in vivo at 20 mg/kg [1]: 21%
IC50 [2]: 430 nM
logD (physchem): 3.55

CCC(C)c1ccc(NC(N)=Nc2ccc3c4c(cccc24)CC3)cc1 (stereo not given)
inhibition in vivo at 20 mg/kg [1]: 33%
IC50 [2]: 680 nM
logD (physchem): 3.31

CC(C)(C)c1ccc(NC(=N)Nc2ccc(C(C)(C)C)cc2)cc1
IC50 (Glutamate NMDA receptor): > 7700 nM
inhibition in vivo at 20 mg/kg [1]: 60%
IC50 [2]: 1540 nM
logD (physchem): 3.65

From ChEMBL document CHEMBL1131068, “Synthesis and pharmacological evaluation of N,N'-diarylguanidines as potent sodium channel blockers and anticonvulsant agents” (J Med Chem, 1998)
